Experimental data: patent publication US20150050299A1, “METHODS FOR ENHANCING IMMUNE RESPONSE” (priority 2010, published 2015)

Assays:
human TLR9 = target: T1, human TLR9 (Homo sapiens, UniProt Q9NR96); experiment: Toll-Like Receptor (TLR) screening assay, TLR9; type: cell-based; settings: 10 μM
T1 sequence (Q9NR96 26-1032): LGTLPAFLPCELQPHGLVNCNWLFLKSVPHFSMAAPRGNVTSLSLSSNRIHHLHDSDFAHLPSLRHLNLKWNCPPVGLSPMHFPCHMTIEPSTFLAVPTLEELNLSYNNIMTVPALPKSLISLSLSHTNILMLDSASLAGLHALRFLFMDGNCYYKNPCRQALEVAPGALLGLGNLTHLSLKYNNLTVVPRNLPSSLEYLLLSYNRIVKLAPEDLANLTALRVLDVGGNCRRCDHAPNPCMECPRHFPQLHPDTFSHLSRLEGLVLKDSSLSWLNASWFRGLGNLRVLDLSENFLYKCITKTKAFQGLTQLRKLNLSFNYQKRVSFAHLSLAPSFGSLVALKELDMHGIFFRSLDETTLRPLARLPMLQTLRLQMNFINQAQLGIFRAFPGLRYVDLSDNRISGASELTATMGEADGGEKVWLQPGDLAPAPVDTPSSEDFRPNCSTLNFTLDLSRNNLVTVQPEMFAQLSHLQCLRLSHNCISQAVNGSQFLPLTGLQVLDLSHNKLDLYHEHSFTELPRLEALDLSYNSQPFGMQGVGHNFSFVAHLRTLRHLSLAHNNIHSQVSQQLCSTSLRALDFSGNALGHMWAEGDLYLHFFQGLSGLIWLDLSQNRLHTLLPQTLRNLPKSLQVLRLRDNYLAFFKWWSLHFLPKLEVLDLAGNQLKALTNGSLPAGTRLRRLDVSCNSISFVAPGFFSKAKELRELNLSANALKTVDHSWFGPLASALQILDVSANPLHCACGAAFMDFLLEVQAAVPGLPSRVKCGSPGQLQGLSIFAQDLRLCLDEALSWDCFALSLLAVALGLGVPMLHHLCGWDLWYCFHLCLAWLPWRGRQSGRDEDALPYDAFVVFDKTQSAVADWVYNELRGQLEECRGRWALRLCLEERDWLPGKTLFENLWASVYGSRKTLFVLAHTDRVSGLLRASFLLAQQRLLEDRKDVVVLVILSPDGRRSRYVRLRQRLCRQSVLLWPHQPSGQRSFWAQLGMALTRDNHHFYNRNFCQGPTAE

[1] = system: squamous cell carcinomas (SCCs); type: in vivo
Description: The combination therapy of polyamine biosynthesis/uptake inhibition was tested against the K6/ODC transgenic mouse murine squamous cell carcinoma (SCC) model recently described.^98 The K6/ODC model was developed to assess whether ODC overexpression was a contributing cause, or an effect of malignant transformation. […] While most skin tumorigenesis models yielded benign squamous papillomas as the predominant tumor type, when the K6/ODC transgene was expressed on the FVB/N strain background, the majority of tumors that developed were aggressive squamous cell carcinomas. These SCCs appeared as early as 5 weeks after treatment and in high multiplicities (up to four tumors per mouse), making this a very efficient model for SCC induction. Using this model, we were thus able to conclude that over-expression of ODC is a sufficient condition for tumor promotion in mouse skin.^99
We conducted an in vivo anti-tumor trial of DFMO combined with either the D-C16-acyl Lys-spm conjugate AMXT 1501 (FIG. 4) or the L-C16-alkyl AMXT 1569 analog (FIG. 5) in the K6/ODC SCC model.
The concentration of AMXT 1501 was 14 μg/ml, or an average daily dose of ˜50-65 μg (equivalent to ˜3 mg/kg/d). […] It is expected that great improvements in the oral bioavailability of AMXT 1501 would result from insightful drug formulation.

human TLR8 = target: T2, human TLR8 (Homo sapiens, UniProt Q9NR97); experiment: Toll-Like Receptor (TLR) screening assay, TLR8; type: cell-based; settings: 10 μM
T2 sequence (Q9NR97 27-1041): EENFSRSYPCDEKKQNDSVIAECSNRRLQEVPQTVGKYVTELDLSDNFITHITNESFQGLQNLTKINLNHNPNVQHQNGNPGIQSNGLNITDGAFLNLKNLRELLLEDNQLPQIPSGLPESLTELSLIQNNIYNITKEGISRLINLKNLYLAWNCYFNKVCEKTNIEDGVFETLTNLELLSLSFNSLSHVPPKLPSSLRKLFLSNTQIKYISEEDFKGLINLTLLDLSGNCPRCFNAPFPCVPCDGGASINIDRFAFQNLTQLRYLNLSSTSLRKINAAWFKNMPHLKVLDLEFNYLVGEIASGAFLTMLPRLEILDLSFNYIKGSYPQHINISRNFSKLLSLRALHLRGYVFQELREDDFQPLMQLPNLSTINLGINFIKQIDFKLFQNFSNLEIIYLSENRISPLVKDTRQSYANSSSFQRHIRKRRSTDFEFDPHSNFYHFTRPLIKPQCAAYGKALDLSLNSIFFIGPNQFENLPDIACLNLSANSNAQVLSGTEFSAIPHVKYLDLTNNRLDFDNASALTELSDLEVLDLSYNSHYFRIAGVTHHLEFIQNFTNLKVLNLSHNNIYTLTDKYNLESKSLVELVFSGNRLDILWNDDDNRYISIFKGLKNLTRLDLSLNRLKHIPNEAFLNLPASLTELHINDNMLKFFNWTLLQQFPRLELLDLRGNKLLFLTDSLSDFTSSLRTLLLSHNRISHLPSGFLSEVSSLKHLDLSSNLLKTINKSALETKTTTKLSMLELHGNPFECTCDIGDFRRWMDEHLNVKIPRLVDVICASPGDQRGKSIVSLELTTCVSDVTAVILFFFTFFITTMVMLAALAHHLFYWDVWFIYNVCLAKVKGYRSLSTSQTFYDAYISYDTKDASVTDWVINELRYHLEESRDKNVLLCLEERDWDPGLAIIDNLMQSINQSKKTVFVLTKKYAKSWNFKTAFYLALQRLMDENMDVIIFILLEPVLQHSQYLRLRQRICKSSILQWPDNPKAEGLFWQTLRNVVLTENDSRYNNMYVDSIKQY

CCCCCCCCCCCCCCCC(=O)NCCCC[C@@H](N)C(=O)NCCCNCCCCNCCCN [AMXT 1501, D-Lys(C16acyl)-Spm]
activity on TLR9 (human TLR9): no significant activity
anti-tumor response to single agent ([1]; agent alone): did not reduce tumor growth
potency to inhibit tumor growth in combination with DFMO, AMXT 1501 versus AMXT 1569 ([1]; combined with DFMO): slightly better results
activity on TLR8 (human TLR8): no significant activity
